Assays:
Format in all cases: cell-based
hEP1 = target: T1, hEP1 (Homo sapiens, UniProt P34995); test: FLIPR calcium signal, HEK-293(EBNA) cells expressing hEP1
T1 construct: expressed in transfected cells; host or cells: HEK-293(EBNA)
T1 sequence (P34995 1-402): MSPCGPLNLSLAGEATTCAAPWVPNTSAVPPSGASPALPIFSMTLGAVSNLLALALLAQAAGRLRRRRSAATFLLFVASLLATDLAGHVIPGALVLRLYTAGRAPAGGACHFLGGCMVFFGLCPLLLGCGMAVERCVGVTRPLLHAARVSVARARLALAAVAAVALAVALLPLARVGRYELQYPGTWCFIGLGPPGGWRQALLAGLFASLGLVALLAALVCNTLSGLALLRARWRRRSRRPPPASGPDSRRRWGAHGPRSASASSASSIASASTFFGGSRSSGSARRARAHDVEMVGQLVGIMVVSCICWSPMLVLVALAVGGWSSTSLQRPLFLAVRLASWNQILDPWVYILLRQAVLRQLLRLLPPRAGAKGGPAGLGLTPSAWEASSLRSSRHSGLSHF
Procedure: (§1) HEK-293(EBNA) cells, stably expressing one type or subtype of recombinant human prostaglandin receptors (prostaglandin receptors expressed: hDP/Gqs5; hEP1; hEP2/Gqs5; hEP3A/Gqi5; hEP4/Gqs5; hFP; hIP; hTP), were cultured in 100 mm culture dishes in high-glucose DMEM medium containing 10% fetal bovine serum, 2 mM l-glutamine, 250 µg/ml geneticin (G418) and 200 μg/ml hygromycin B as selection markers, and 100 units/ml penicillin G, 100 µg/ml streptomycin and 0.25 μg/ml amphotericin B.
(§2) Cells were seeded at a density of 5×10^4 cells per well in Biocoat® Poly-D-lysine-coated black-wall, clear-bottom 96-well plates (Becton-Dickinson) and allowed to attach overnight in an incubator at 37° C. Cells were then washed two times with HBSS-HEPES buffer (Hanks Balanced Salt Solution without bicarbonate and phenol red, 20 mM HEPES, pH 7.4) using a Denley Cellwash plate washer (Labsystems). After 45 minutes of dye-loading in the dark, using the calcium-sensitive dye Fluo-4 […] at a final concentration of 2 μM, plates were washed four times with HBSS-HEPES buffer to remove excess dye leaving 100 μl in each well. Plates were re-equilibrated to 37° C. for a few minutes.
(§3) Cells were excited with an Argon laser at 488 nm, and emission was measured through a 510-570 nm bandwidth emission filter (FLIPR™, Molecular Devices, Sunnyvale, Calif.). Drug solution was added in a 50 µl volume to each well to give the desired final concentration. The peak increase in fluorescence intensity was recorded for each well. On each plate, four wells each served as negative (HBSS-HEPES buffer) and positive controls (standard agonists: BW245C (hDP); PGE2 (hEP1; hEP2/Gqs5; hEP3A/Gqi5; hEP4/Gqs5); PGF2α (hFP); carbacyclin (hIP); U-46619 (hTP), depending on receptor). The peak fluorescence change in each drug-containing well was then expressed relative to the controls.
(§4) Compounds were tested in a high-throughput (HTS) or concentration-response (CoRe) format. In the HTS format, forty-four compounds per plate were examined in duplicates at a concentration of 10^−5 M. To generate concentration-response curves, four compounds per plate were tested in duplicates in a concentration range between 10^−5 and 10^−11 M. The duplicate values were averaged. In either, HTS or CoRe format each compound was tested on at least 3 separate plates using cells from different passages to give an n≧3.

hDP/Gqs5 = target: T2, hDP/Gqs5 (Homo sapiens, UniProt Q13258); test: FLIPR calcium signal, HEK-293(EBNA) cells expressing hDP/Gqs5
T2 construct: expressed in transfected cells; host or cells: HEK-293(EBNA)
T2 sequence (Q13258 1-359): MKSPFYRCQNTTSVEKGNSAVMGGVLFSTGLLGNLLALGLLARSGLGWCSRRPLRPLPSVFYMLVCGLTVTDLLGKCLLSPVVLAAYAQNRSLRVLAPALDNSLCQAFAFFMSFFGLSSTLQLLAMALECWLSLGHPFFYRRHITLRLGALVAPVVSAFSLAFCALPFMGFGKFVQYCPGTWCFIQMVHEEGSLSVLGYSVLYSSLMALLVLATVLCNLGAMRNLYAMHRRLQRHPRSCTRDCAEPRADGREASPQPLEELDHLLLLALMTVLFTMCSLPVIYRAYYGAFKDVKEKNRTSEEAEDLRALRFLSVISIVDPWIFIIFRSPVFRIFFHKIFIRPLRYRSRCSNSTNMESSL
Procedure: as §1, §2, §3, §4

hFP = target: T3, hFP (Homo sapiens, UniProt P43088); test: FLIPR calcium signal, HEK-293(EBNA) cells expressing hFP
T3 construct: expressed in transfected cells; host or cells: HEK-293(EBNA)
Procedure: as §1, §2, §3, §4

hEP3A/Gqi5 = target: T4, hEP3A/Gqi5 (Homo sapiens, UniProt P43115); test: FLIPR calcium signal, HEK-293(EBNA) cells expressing hEP3A/Gqi5; settings: for EC50: read-out: Ca2+ Signal-EC50(nM) EP3
T4 construct: expressed in transfected cells; host or cells: HEK-293(EBNA)
T4 sequence (P43115 1-390): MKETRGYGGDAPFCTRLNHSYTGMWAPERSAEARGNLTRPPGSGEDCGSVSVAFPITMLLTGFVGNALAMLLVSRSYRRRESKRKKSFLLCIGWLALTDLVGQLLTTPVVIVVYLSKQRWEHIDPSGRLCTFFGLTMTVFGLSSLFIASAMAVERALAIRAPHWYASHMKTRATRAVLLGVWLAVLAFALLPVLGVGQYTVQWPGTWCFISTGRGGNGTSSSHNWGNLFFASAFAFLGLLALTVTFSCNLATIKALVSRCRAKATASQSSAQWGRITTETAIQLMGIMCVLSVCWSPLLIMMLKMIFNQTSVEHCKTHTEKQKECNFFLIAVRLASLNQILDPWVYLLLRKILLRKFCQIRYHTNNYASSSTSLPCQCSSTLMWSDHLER
Procedure: as §1, §2, §3, §4

T3 sequence (P43088 whole entry): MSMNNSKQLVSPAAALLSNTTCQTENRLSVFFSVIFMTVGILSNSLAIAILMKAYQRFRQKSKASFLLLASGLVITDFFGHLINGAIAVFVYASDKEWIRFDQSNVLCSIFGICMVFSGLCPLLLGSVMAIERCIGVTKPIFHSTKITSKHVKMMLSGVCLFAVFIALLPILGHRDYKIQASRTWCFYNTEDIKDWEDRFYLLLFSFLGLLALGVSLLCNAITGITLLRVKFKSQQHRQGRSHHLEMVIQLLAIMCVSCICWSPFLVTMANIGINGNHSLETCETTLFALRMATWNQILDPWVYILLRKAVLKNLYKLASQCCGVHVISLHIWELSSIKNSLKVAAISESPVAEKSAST

CCCCCC(O)c1ccc([C@H]2C(=O)CC[C@@H]2CCCc2ccc(C(=O)O)s2)cc1 (stereo partly shown) [compound 1]
Ca2+ Signal-EC50(nM) EP1 (hEP1): notactive
Ca2+ Signal-EC50(nM) DP (hDP/Gqs5): notactive
Ca2+ Signal-EC50(nM) FP (hFP): notactive
EC50 (hEP3A/Gqi5): 8780 nM

CCCCCC(O)c1ccc([C@H]2C(=O)CC[C@@H]2CCCc2ccc(C(=O)O)s2)cc1 (stereo partly shown) [compound 2]
Ca2+ Signal-EC50(nM) EP1 (hEP1): notactive
EC50 (hDP/Gqs5; read-out: Ca2+ Signal-EC50(nM) DP): 9060 nM
Ca2+ Signal-EC50(nM) FP (hFP): notactive
Ca2+ Signal-EC50(nM) EP3 (hEP3A/Gqi5): notactive

CCCCCC(O)c1ccc([C@@H]2[C@@H](CCCc3ccc(C(=O)O)s3)CCC2(Cl)Cl)cc1 (stereo partly shown) [compound 3]
Ca2+ Signal-EC50(nM) EP1 (hEP1): notactive
Ca2+ Signal-EC50(nM) DP (hDP/Gqs5): notactive
Ca2+ Signal-EC50(nM) FP (hFP): notactive
Ca2+ Signal-EC50(nM) EP3 (hEP3A/Gqi5): notactive

CCCCCC(O)c1ccc([C@H]2C(=O)CC[C@@H]2C/C=C\CCCC(=O)O)cc1 (stereo partly shown) [compound 5]
Ca2+ Signal-EC50(nM) EP1 (hEP1): notactive
Ca2+ Signal-EC50(nM) DP (hDP/Gqs5): notactive
Ca2+ Signal-EC50(nM) FP (hFP): notactive
EC50 (hEP3A/Gqi5): 4420 nM

CCCCCC(O)c1ccc([C@@H]2[C@@H](C/C=C\CCCC(=O)O)CC[C@H]2Cl)cc1 (stereo partly shown) [compound 6]
Ca2+ Signal-EC50(nM) EP1 (hEP1): notactive
Ca2+ Signal-EC50(nM) DP (hDP/Gqs5): notactive
Ca2+ Signal-EC50(nM) FP (hFP): notactive
EC50 (hEP3A/Gqi5): 182 nM

CCCCCC(O)c1ccc([C@@H]2[C@@H](C/C=C\CCCC(=O)O)CC[C@H]2O)cc1 (stereo partly shown) [compound 7]
Ca2+ Signal-EC50(nM) EP1 (hEP1): notactive
Ca2+ Signal-EC50(nM) DP (hDP/Gqs5): notactive
Ca2+ Signal-EC50(nM) FP (hFP): notactive
EC50 (hEP3A/Gqi5): 3480 nM

CCCCCC(O)c1ccc([C@H]2C(=O)C=C[C@@H]2CCCc2ccc(C(=O)O)s2)cc1 (stereo partly shown) [compound 11]
Ca2+ Signal-EC50(nM) EP1 (hEP1): notactive
Ca2+ Signal-EC50(nM) DP (hDP/Gqs5): notactive
Ca2+ Signal-EC50(nM) FP (hFP): notactive
EC50 (hEP3A/Gqi5): 4550 nM

Reference: patent US7439372B2, “Therapeutic compounds” (Allergan, Inc., priority 2006, dated 2008)
